In PubChem BioAssay AID256 (DTP/NCI, 2004):
“And” between values parts separate entries of the source, which are not always exact repeats. Identical values can stand only once. Inconclusive results and toxic doses are left out.

System: CD2F1 mice, L1210 leukemia ip, survival T/C
Assay: NCI In Vivo Anticancer Drug Screen. Data for tumor model L1210 Leukemia (intraperitoneal) in CD2F1 (CDF1) mice
Settings: higher = longer survival
Procedure, shortened: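 Vehicle-treated tumor-bearing mice served as controls (C) for compound-treated mice (T). Reported figure is T divided by C.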

[1] = endpoint: mean survival time, dose: 100.0 mg/kg/injection, schedule: Q04DX002 (ip), vehicle: saline with Tween-80
[2] = endpoint: mean survival time, dose: 200.0 mg/kg/injection, schedule: Q04DX002 (ip), vehicle: saline with Tween-80
[3] = endpoint: mean survival time, dose: 400.0 mg/kg/injection, schedule: Q04DX002 (ip), vehicle: saline with Tween-80
[4] = endpoint: mean survival time, dose: 50.0 mg/kg/injection, schedule: Q01DX009 (ip), vehicle: saline with Tween-80
[5] = endpoint: mean survival time, dose: 100.0 mg/kg/injection, schedule: Q01DX009 (ip), vehicle: saline with Tween-80
[6] = endpoint: mean survival time, dose: 100.0 mg/kg/injection, schedule: Q04DX003 (ip), vehicle: saline with Tween-80
[7] = endpoint: mean survival time, dose: 200.0 mg/kg/injection, schedule: Q04DX003 (ip), vehicle: saline with Tween-80
[8] = endpoint: mean survival time, dose: 400.0 mg/kg/injection, schedule: Q04DX003 (ip), vehicle: saline with Tween-80
[9] = endpoint: mean survival time, dose: 25.0 mg/kg/injection, schedule: Q01DX009 (ip), vehicle: saline with Tween-80
[10] = endpoint: mean survival time, dose: 200.0 mg/kg/injection, schedule: Q01DX009 (ip), vehicle: saline with Tween-80
[11] = endpoint: mean survival time, dose: 100.0 mg/kg/injection, schedule: Q04DX003 (ip), vehicle: Klucel (hydroxypropylcellulose) (HPC)
[12] = endpoint: mean survival time, dose: 200.0 mg/kg/injection, schedule: Q04DX003 (ip), vehicle: Klucel (hydroxypropylcellulose) (HPC)
[13] = endpoint: mean survival time, dose: 400.0 mg/kg/injection, schedule: Q01DX009 (ip), vehicle: saline with Tween-80
[14] = endpoint: mean survival time, dose: 100.0 mg/kg/injection, schedule: Q01DX001 (ip), vehicle: saline with Tween-80
[15] = endpoint: mean survival time, dose: 200.0 mg/kg/injection, schedule: Q01DX001 (ip), vehicle: saline with Tween-80

COC(=O)/C=C/c1ccc(O)cc1
T/C (endpoint: mean survival time, dose: 100.0 mg/kg/injection, schedule: Q01DX001 (ip), vehicle: saline sonified): 102 % of control | T/C [1]: 101 % of control | T/C (endpoint: mean survival time, dose: 200.0 mg/kg/injection, schedule: Q01DX001 (ip), vehicle: saline sonified): 102 % of control | T/C [2]: 101 % of control | T/C (endpoint: mean survival time, dose: 400.0 mg/kg/injection, schedule: Q01DX001 (ip), vehicle: saline sonified): 102 % of control | T/C [3]: 96 % of control

CSc1ccc(NC(=O)N(CCCl)N=O)cc1
T/C (endpoint: mean survival time, dose: 2.3 mg/kg/injection, schedule: Q01DX001 (ip), vehicle: other): 121 % of control | T/C (endpoint: mean survival time, dose: 3.5 mg/kg/injection, schedule: Q01DX001 (ip), vehicle: other): 122 % of control

c1ccc2c(c1)[As]=c1ccccc1=[As]2 (centres undefined)
T/C (endpoint: median survival time, dose: 1.5 mg/kg/injection, schedule: Q01DX009 (ip), vehicle: saline with Tween-80): 108 % of control | T/C (endpoint: median survival time, dose: 3.0 mg/kg/injection, schedule: Q01DX009 (ip), vehicle: saline with Tween-80): 101 % of control | T/C (endpoint: median survival time, dose: 6.0 mg/kg/injection, schedule: Q01DX009 (ip), vehicle: saline with Tween-80): 102 % of control and 104 % of control | T/C (endpoint: median survival time, dose: 12.0 mg/kg/injection, schedule: Q01DX009 (ip), vehicle: saline with Tween-80): 113 % of control and 109 % of control | T/C (endpoint: median survival time, dose: 24.0 mg/kg/injection, schedule: Q01DX009 (ip), vehicle: saline with Tween-80): 106 % of control | T/C (endpoint: median survival time, dose: 48.0 mg/kg/injection, schedule: Q01DX009 (ip), vehicle: saline with Tween-80): 100 % of control

OCCCCSc1ccccc1
T/C (endpoint: mean survival time, dose: 75.0 mg/kg/injection, schedule: Q04DX003 (ip), vehicle: saline): 98 % of control | T/C (endpoint: mean survival time, dose: 150.0 mg/kg/injection, schedule: Q04DX003 (ip), vehicle: saline): 98 % of control | T/C (endpoint: mean survival time, dose: 300.0 mg/kg/injection, schedule: Q04DX003 (ip), vehicle: saline): 91 % of control

Cc1cn(C2CC(O)C(Cn3ccc4ccccc43)O2)c(=O)[nH]c1=O (centres undefined)
T/C (endpoint: mean survival time, dose: 12.5 mg/kg/injection, schedule: Q01DX005 (ip), vehicle: Klucel (hydroxypropylcellulose) (HPC)): 94 % of control | T/C (endpoint: mean survival time, dose: 25.0 mg/kg/injection, schedule: Q01DX005 (ip), vehicle: Klucel (hydroxypropylcellulose) (HPC)): 90 % of control

CCCCCCCCC(=O)N(C)OC
T/C [4]: 102 % of control | T/C [5]: 104 % of control

O=CNc1ccc(C(=O)O)cc1
T/C [6]: 94 % of control | T/C [7]: 94 % of control | T/C [8]: 100 % of control

COC1(OC)C(Cl)=C(Cl)C(Cl)=C1Cl
T/C (endpoint: mean survival time, dose: 6.25 mg/kg/injection, schedule: Q01DX009 (ip), vehicle: saline with Tween-80): 96 % of control | T/C (endpoint: mean survival time, dose: 12.5 mg/kg/injection, schedule: Q01DX009 (ip), vehicle: saline with Tween-80): 98 % of control | T/C (endpoint: mean survival time, dose: 12.5 mg/kg/injection, schedule: Q04DX003 (ip), vehicle: saline with Tween-80): 111 % of control | T/C [9]: 96 % of control | T/C (endpoint: mean survival time, dose: 25.0 mg/kg/injection, schedule: Q04DX003 (ip), vehicle: saline with Tween-80): 111 % of control

N#C/C(=C\c1ccc(-c2ccccc2)cc1)c1ccc([N+](=O)[O-])cc1
T/C [7]: 86 % of control | T/C [8]: 94 % of control

COC(=O)C(C)C1CCC2C3=CC=C4CC(OC(C)=O)CCC4(C)C3=CCC21C (centres undefined)
T/C (endpoint: mean survival time, dose: 100.0 mg/kg/injection, schedule: Q01DX001 (ip), vehicle: Klucel (hydroxypropylcellulose) (HPC)): 98 % of control | T/C (endpoint: mean survival time, dose: 200.0 mg/kg/injection, schedule: Q01DX001 (ip), vehicle: Klucel (hydroxypropylcellulose) (HPC)): 92 % of control | T/C (endpoint: mean survival time, dose: 400.0 mg/kg/injection, schedule: Q01DX001 (ip), vehicle: Klucel (hydroxypropylcellulose) (HPC)): 92 % of control

CCCC(C)(C)O
T/C [6]: 104 % of control | T/C [7]: 107 % of control | T/C [8]: 101 % of control

C=CCC(O)CCCC (centres undefined)
T/C [4]: 103 % of control | T/C [5]: 103 % of control | T/C [10]: 103 % of control

CC1=C(C#[N+][O-])C(C)(C)CCC1
T/C (endpoint: mean survival time, dose: 75.0 mg/kg/injection, schedule: Q01DX001 (ip), vehicle: other): 102 % of control | T/C (endpoint: mean survival time, dose: 150.0 mg/kg/injection, schedule: Q01DX001 (ip), vehicle: other): 97 % of control | T/C (endpoint: mean survival time, dose: 300.0 mg/kg/injection, schedule: Q01DX001 (ip), vehicle: other): 105 % of control

COc1cc(NC(=O)Nc2cccc(Cl)c2)c(OC)cc1Cl
T/C [1]: 94 % of control | T/C [3]: 91 % of control

COC(=O)Nc1cccc(OC(=O)NC(C)(C)CC(C)(C)C)c1
T/C [9]: 101 % of control | T/C [4]: 101 % of control | T/C [5]: 97 % of control

[CH3][Sn]([CH3])([Cl])[S]CCN
T/C (endpoint: median survival time, dose: 3.12 mg/kg/injection, schedule: Q01DX009 (ip), vehicle: saline): 107 % of control | T/C (endpoint: median survival time, dose: 6.25 mg/kg/injection, schedule: Q01DX009 (ip), vehicle: saline): 101 % of control | T/C (endpoint: median survival time, dose: 12.5 mg/kg/injection, schedule: Q01DX009 (ip), vehicle: saline): 109 % of control | T/C (endpoint: median survival time, dose: 25.0 mg/kg/injection, schedule: Q01DX009 (ip), vehicle: saline): 111 % of control | T/C (endpoint: median survival time, dose: 50.0 mg/kg/injection, schedule: Q01DX009 (ip), vehicle: saline): 114 % of control

CC(=O)NC1C=C(C)C(=O)O1 (centres undefined)
T/C (endpoint: mean survival time, dose: 100.0 mg/kg/injection, schedule: Q04DX002 (ip), vehicle: saline): 102 % of control | T/C (endpoint: mean survival time, dose: 200.0 mg/kg/injection, schedule: Q04DX002 (ip), vehicle: saline): 91 % of control | T/C (endpoint: mean survival time, dose: 400.0 mg/kg/injection, schedule: Q04DX002 (ip), vehicle: saline): 94 % of control

CC(=O)N(C)N=Nc1ccc(Cl)cc1
T/C (endpoint: mean survival time, dose: 25.0 mg/kg/injection, schedule: Q04DX003 (ip), vehicle: Klucel (hydroxypropylcellulose) (HPC)): 109 % of control | T/C (endpoint: mean survival time, dose: 50.0 mg/kg/injection, schedule: Q04DX003 (ip), vehicle: Klucel (hydroxypropylcellulose) (HPC)): 105 % of control | T/C [11]: 103 % of control | T/C [12]: 100 % of control

O=C(O)C1=NN(c2cccc([N+](=O)[O-])c2)C(=O)C1
T/C [5]: 114 % of control | T/C [6]: 98 % of control | T/C [10]: 101 % of control | T/C [7]: 104 % of control | T/C [13]: 95 % of control | T/C [8]: 102 % of control

OC1CCCC(O)C1O (centres undefined)
T/C (endpoint: mean survival time, dose: 100.0 mg/kg/injection, schedule: Q04DX003 (ip), vehicle: saline): 101 % of control | T/C (endpoint: mean survival time, dose: 200.0 mg/kg/injection, schedule: Q04DX003 (ip), vehicle: saline): 97 % of control | T/C (endpoint: mean survival time, dose: 400.0 mg/kg/injection, schedule: Q04DX003 (ip), vehicle: saline): 101 % of control

COC(=O)[C@]1(C)CCC[C@]2(C)c3cc(C(C)=O)c(C(C)C)cc3CC[C@@H]12
T/C [5]: 97 % of control | T/C [10]: 97 % of control | T/C [13]: 100 % of control

CCOC1C=CCCC1 (centres undefined)
T/C [5]: 95 % of control | T/C [6]: 97 % of control | T/C [10]: 95 % of control | T/C [7]: 93 % of control | T/C [8]: 97 % of control

CS(=O)(=O)OCCN(CCOS(C)(=O)=O)c1ccc(C=Nc2ccc(C(=O)O)c(O)c2)cc1
T/C (endpoint: mean survival time, dose: 0.5 mg/kg/injection, schedule: Q01DX009 (ip), vehicle: saline): 104 % of control | T/C (endpoint: mean survival time, dose: 1.0 mg/kg/injection, schedule: Q01DX009 (ip), vehicle: saline): 101 % of control | T/C (endpoint: mean survival time, dose: 2.0 mg/kg/injection, schedule: Q01DX009 (ip), vehicle: saline): 107 % of control | T/C (endpoint: mean survival time, dose: 4.0 mg/kg/injection, schedule: Q01DX009 (ip), vehicle: saline): 104 % of control

CS(=O)(=O)c1nnc(-c2ccccc2)s1
T/C [11]: 90 % of control | T/C [12]: 90 % of control

Cc1cc(=O)[nH]c(=S)[nH]1
T/C [14]: 98 % of control | T/C [1]: 97 % of control | T/C [15]: 95 % of control | T/C [2]: 97 % of control | T/C (endpoint: mean survival time, dose: 400.0 mg/kg/injection, schedule: Q01DX001 (ip), vehicle: saline with Tween-80): 88 % of control

O=C(NC1CCC(NC(=O)N2CC2)CC1)N1CC1 (centres undefined)
T/C (endpoint: mean survival time, dose: 6.75 mg/kg/injection, schedule: Q01DX001 (ip), vehicle: carboxymethylcellulose (CMC)): 164 % of control | T/C (endpoint: mean survival time, dose: 10.0 mg/kg/injection, schedule: Q01DX001 (ip), vehicle: carboxymethylcellulose (CMC)): 185 % of control | T/C (endpoint: mean survival time, dose: 15.0 mg/kg/injection, schedule: Q01DX001 (ip), vehicle: carboxymethylcellulose (CMC)): 102 % of control

ClCC(Cl)C(Cl)CCl (centres undefined)
T/C (endpoint: mean survival time, dose: 50.0 mg/kg/injection, schedule: Q01DX001 (ip), vehicle: saline with Tween-80): 95 % of control | T/C [14]: 109 % of control | T/C [15]: 86 % of control
